Among the data in the supplement of paper PMC10307832 are relative viability values, retold here.

What all share (assay): relative viability (nuclei count vs DMSO), 5 days (fraction); higher = more cells survive
Compound in assay [1]: CC1=NN=C(O1)C2=NN=C(C=C2)N3CCC(CC3)OC4=C(C=CC(=C4)F)Cl + Cc1nc(Nc2ncc(C(=O)Nc3c(C)cccc3Cl)s2)cc(N2CCN(CCO)CC2)n1 [Dasatinib] (partner 0.075 µM)
In short, it runs like this:
(§1)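 Lung cancer cell lines were pin-tool dosed in 1536-well plates on the day after seeding, with either a lone drug or a fixed anchor-drug dose plus five library-drug doses (not always all listed) in √10 steps. Nuclei were counted on 4× images after 5 days. Relative viability is the ratio of treated-well to vehicle-well nuclei counts, with each value a median of duplicate plates.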

Compound in assay [2]: CC1=NN=C(O1)C2=NN=C(C=C2)N3CCC(CC3)OC4=C(C=CC(=C4)F)Cl + O=C(c1cc(Cc2n[nH]c(=O)c3ccccc23)ccc1F)N1CCN(C(=O)C2CC2)CC1 [Olaparib] (partner 8 µM)
In short, it runs like this: as §1

Compound in assay [3]: CC1=NN=C(O1)C2=NN=C(C=C2)N3CCC(CC3)OC4=C(C=CC(=C4)F)Cl + CC(C)C[C@H](NC(=O)[C@H](Cc1ccccc1)NC(=O)c1cnccn1)B(O)O [Bortezomib] (partner 0.002 µM)
An outline of the steps: as §1

Compound in the assay “Tosedostat + Tozasertib”: CC(C)C[C@@H](C(=O)N[C@H](C(=O)OC1CCCC1)c1ccccc1)[C@H](O)C(=O)NO [Tosedostat] + Cc1cc(Nc2cc(N3CCN(C)CC3)nc(Sc3ccc(NC(=O)C4CC4)cc3)n2)n[nH]1 [Tozasertib] (partner 0.1 µM)
An outline of the steps:
as §1

Regarding UMC-11, the relative viability in assay [1] (first compound 0.253 µM) turned out to be 0.473; in assay [1] (first compound 0.8 µM) it was 0.476; in assay [1] (first compound 2.53 µM) it was 0.512; in assay [1] (first compound 8 µM) it was 0.435; in assay [2] (first compound 0.253 µM), 0.244; in assay [2] (first compound 0.8 µM) it was 0.379. Besides, the relative viability in assay [2] (first compound 2.53 µM) amounted to 0.396; in assay [2] (first compound 8 µM) it was 0.233; in assay [3] (first compound 0.253 µM), 0.66; in assay [3] (first compound 0.8 µM), 0.533; in assay [3] (first compound 2.53 µM), 0.636; in assay [3] (first compound 8 µM), 0.575. Also, the relative viability with Tosedostat + Tozasertib (first compound 0.02 µM) was determined as 0.214; in the assay with Tosedostat + Tozasertib (first compound 0.06325 µM), 0.195; with Tosedostat + Tozasertib (first compound 0.2 µM), 0.206; with Tosedostat + Tozasertib (first compound 0.6325 µM), 0.197; in the assay with Tosedostat + Tozasertib (first compound 2 µM), 0.194.
